Assay results: the NIST ThermoML archive (doi:10.1016/j.jct.2014.06.005)

What was measured:
[1] = Ring tensiometer
[2] = xn = mol fraction of the nth substance listed; details: Ring tensiometer

CC(C)CCO [3-methylbutan-1-ol]
[1]
Details | surface tension liquid-gas [mN/m]
298.15 K | 22.83
308.15 K | 22.02
318.15 K | 21.3
328.15 K | 20.49

C[S+](C)[O-] [dimethyl sulfoxide] + CC(C)CCO
[2], x2 = 0
Details | surface tension liquid-gas [mN/m]
298.15 K | 42.28
308.15 K | 41.18
318.15 K | 40.14
328.15 K | 38.93

CC(C)(C)O [2-methylpropan-2-ol]
[1]
Details | surface tension liquid-gas [mN/m]
298.15 K | 19.96
308.15 K | 19.26
318.15 K | 18.35
328.15 K | 17.62

C[S+](C)[O-] [dimethyl sulfoxide]
[1]
Details | surface tension liquid-gas [mN/m]
298.15 K | 42.28
308.15 K | 41.18
318.15 K | 40.14
328.15 K | 38.93

CC(C)(C)O [2-methylpropan-2-ol] + C[S+](C)[O-]
surface tension liquid-gas [mN/m], [2]
Details | 298.15 K | 308.15 K | 318.15 K | 328.15 K
x1 = 0.0183 | 39.25 | 38.29 | 37.56 | 36.51
x1 = 0.0361 | 36.85 | 36.01 | 35.32 | 34.28
x1 = 0.0695 | 34.2 | 33.39 | 32.73 | 31.66
x1 = 0.1008 | 32.36 | 31.54 | 30.78 | 29.89
x1 = 0.1301 | 31.04 | 30.17 | 29.53 | 28.54
x1 = 0.1832 | 29.19 | 28.35 | 27.71 | 26.83
x1 = 0.2302 | 28.08 | 27.23 | 26.53 | 25.71
x1 = 0.3096 | 26.31 | 25.51 | 24.96 | 24.17
x1 = 0.4022 | 24.98 | 24.21 | 23.69 | 22.86
x1 = 0.4928 | 23.72 | 23.02 | 22.37 | 21.63
x1 = 0.5736 | 22.87 | 22.01 | 21.36 | 20.63
x1 = 0.6322 | 22.19 | 21.4 | 20.85 | 20.06
x1 = 0.6767 | 21.72 | 21.02 | 20.47 | 19.71
x1 = 0.7115 | 21.51 | 20.85 | 20.18 | 19.38
x1 = 0.8511 | 20.64 | 19.92 | 19.03 | 18.26
x1 = 1 | 19.96 | 19.26 | 18.35 | 17.62

C[S+](C)[O-] [dimethyl sulfoxide] + CC(C)(C)O
[2], x2 = 0
Details | surface tension liquid-gas [mN/m]
298.15 K | 42.28
308.15 K | 41.18
318.15 K | 40.14
328.15 K | 38.93
